Data: patent publication US9738612B2, “Methylacryloyl benzimidazolone derivative and anti-tumour use thereof” (SHANGHAI NATURE STANDARD R&D AND BIOTECH CO., LTD, priority 2014, dated 2017)
Entries after “also recorded” stand apart in the source; their conditions may differ.

How the values were obtained:
Assay type in all cases: cell-based
[1] = system: Akt phosphorylation at S473 site; test: ELISA (double antibody sandwich), Akt phosphorylation in IGF-1 stimulated A549 cells; details: for Inhibitory rate % (Akt phosphorylation): drug 1 h, then IGF-1 10 min, p-Akt (S473) ELISA; for Effect on Akt phosphorylation compared with positive control: ELISA, in words
Experimental: Establishment of ELISA screening method using a double antibody sandwich method: A549 cells (a lung cancer cell line, purchased from Chinese Academy of Sciences, Shanghai Institutes for Biological Sciences Cell Resource Center) were inoculated at certain densities in 12-well plates, and incubated at 37° C. in a carbon dioxide incubator overnight to let cells attach the plate wells. Meanwhile the Akt antibody was inoculated at a specific concentration in a highly-adsorbed microplate, and placed in a refrigerator at 4° C. The 12-well plates were washed with sterile PBS three times, then into which serum-free F12 was added, and incubated for 24 hours in a incubator. Then MK2206, Triciribine and FD series drugs were added into 12-well plates and worked for one hour, followed by adding 100 ng of IGF-1 and being stimulated for 10 minutes. The 12-well plates were washed with pre-cooled PBS three times, and 100 μl of RIPA lysis buffer was added into each well to lyse cells on ice for 20 minutes. The lysates were collected and added to the appropriate microplate (purchased from Santa Cruz biotechnology), which were shaken on ice. A p-Akt (S473) antibody (purchased Cell Signaling Technology, Inc.) was added into microplates. After shaking for a period of time, an anti-rabbit antibody (purchased from Cell Signaling Technology, Inc.) was added. The reaction was terminated with 2M sulfuric acid after TMB developed. Absorbance at 450 nm was measured on a microplate reader, and the inhibitory rate=[…], among which ODsample refers to the absorbance of the sample well, ODIGF refers the absorbance of the well with IGF only, OD—IGF refers the absorbance of the well withoutIGF.

p-Akt (S473) = test: Western blot, p-Akt (S473) in IGF stimulated A549 cells; details: compound 1 h, IGF 10 min, FIG. 1, in words
Experimental: A549 cells were seeded at a density of 2×10^5 cells/well into 12-well plates, and adhered overnight. Then the medium was discarded and the plates were washed three times with normal saline. After that, fresh serum-free medium was added to starve cells for 24 hours, compounds to be tested were added to work for 1 h, then IGF-I was added to stimulated for 10 min, followed byadding a lysis buffer on ice to lyse for half an hour. The cell lysates were collected and centrifuged at 20000×g at 4° C. for 10min, then the supernatant was collected. Protein was quantified by MicroBCA protein quantification Assay kit, and the protein concentration was normalized. The supernatant was mixed with the 4×SDS sample buffer [200 mM Tris.Cl (pH 6.8), 400 mM DTT, 8% SDS, 0.4% bromophenol blue, 40% glycerol] and boiled for 15 min. After cooling at room temperature, aliquots were loaded on polyacrylamide gel, and electrophoresed in Tris-glycine electrophoretic buffer (25 mM Tris, 250 mM glycine, 0.1% SDS) at 80-120 V for about 2 h. Proteins were transferred from the gel to a nitrocellulose membrane by a semi-dry method. Transferring conditions: transfer buffer (39 mM glycine, 48 mM Tris base, 0.037% SDS, 20% methanol); transfer current 25 mA; transfer time 2 h. After transfer, Ponceau S staining was used to determine the transfer efficiency and the positions of protein bands on the nitrocellulose membranes. After labeling the membrane was blocked with a blocking solution containing 5% nonfat-dried milk [5% nonfat-dried milk, 20 mM Tris-HCl (pH 7.2-7.4), 150 mM NaCl, 0.1% (v/v) Tween 20] on a shaker at room temperature for 2 h. To the system were added specific primary antibodies and incubated overnight at 4° C. Then the membrane was washed with PBST solution [20 mM Tris-HCl (pH 7.2-7.4), 150 mM NaCl, 0.1% (v/v) Tween 20] at room temperature three times, 15 min/time. To the system were added Horseradish peroxidase-labeled secondary antibodies and incubated at room temperature on a shaker with gentle shaking for 2 h. After washing with PBST solution three times, the system was exposed, developed and fixed after SuperSignal West Dura Chemiluminescent Substrate (Pierce Inc, Rochford, IL) was used for color. The results were shown in FIG. 1, in which there were 12 lanes the band shade and size of which indicated the corresponding protein concentration levels. […] MK2206 was an Akt phosphorylation inhibitor developed by Merck, and was currently in phase II clinical trial, showing good therapeutic effects in a variety of tumors.

A549 = test: Sulforhodamine B proliferation; details: SRB; for Inhibitory rate % (A549): 10 μM, 72 h; for inhibition at 10 µM: Homo sapiens, A549, 72 h, read-out: Inhibitory rate % (A549)
Experimental: (§1) At a certain density cells were seeded in 96-well plates, and adhered overnight. The medium was discarded after incubating cells with compounds to be tested for 72 h, then 100μL/well trichloroacetic acid (TCA) was added to fix cells at 4° C. for 2h. After that the fixing solution was discarded. Cells were gently washed 5 times with distilled water, dried at room temperature. Cells were stained with 4 mg/mL SRB staining solution (100 μL/well) at room temperature for 15min. The staining solution was discarded, and cells were washed five times with 1% acetic acid (HAC) and dried at room temperature. To the plate tris base buffer (10 mM) was added at 150 μL/well and placed at room temperature for 15min. The OD values were measured at 540 nm wavelength in a microplate reader. Inhibitory rate (%)=(OD valuecontrol wells−OD valuedrugs treated wells)/OD valuecontrol wells×100%.
(§2) The results were shown in Table 2, the working concentrations of MK2206 and compounds of FD series were 10 μM. As shown in this Table, PC-3 is a prostate cancer cell line purchased from Cell Resource Center of Shanghai Institutes for Biological Sciences, Chinese Academy of Sciences, A549 is a lung cancer cell line purchased from Cell Resource Center of Shanghai Institutes for Biological Sciences, Chinese Academy of Sciences, and SGC-7901 is a gastric cancer cell line purchased from Cell Resource Center of Shanghai Institutes for Biological Sciences, Chinese Academy of Sciences.

PC-3 = test: Sulforhodamine B proliferation; details: SRB; for inhibition at 10 µM: Homo sapiens, PC-3, 72 h, read-out: Inhibitory rate % (PC-3); for inhibition at 10 µM / Inhibitory rate % (PC-3): 72 h
Experimental: as §1, §2

SGC-7901 = test: Sulforhodamine B proliferation; details: SRB; for Inhibitory rate % (SGC-7901): 10 μM, 72 h; for inhibition at 10 µM: Homo sapiens, SGC-7901, 72 h, read-out: Inhibitory rate % (SGC-7901)
Experimental: as §1, §2

| Compound | Inhibitory rate % (Akt phosphorylation) [1] | Effect on Akt phosphorylation level (p-Akt S473 band) (p-Akt (S473)) | Inhibitory rate % (A549) (A549) | Inhibiting effect on PC-3 tumor cells (PTEN deficient) proliferation relative to other lines (PC-3; 10 μM, in words) | inhibition at 10 µM (PC-3) | Inhibitory rate % (SGC-7901) (SGC-7901) | Effect on Akt phosphorylation compared with positive control [1] | Inhibitory rate % (PC-3) (PC-3; 10 μM) | inhibition at 10 µM (A549) | inhibition at 10 µM (SGC-7901) |
| --- | --- | --- | --- | --- | --- | --- | --- | --- | --- | --- |
| C=C(C)n1c(=O)n(C(C)=O)c2ccc([N+](=O)[O-])cc21 [FD1] | 85% | significantly reduce the Akt phosphorylation level; also recorded: comparable effects to MK2206 | 9.6% | more significant | 51.1% | 56.4% |  |  |  |  |
| C=C(C)n1c(=O)n(C(C)=O)c2ccc([N+](=O)[O-])cc21 [FD2] | 51% |  | 3.4% |  |  | 23.4% | comparable effects with that of Triciribine | 32.4% |  |  |
| C=C(C)n1c(=O)n(C(=O)CC)c2cc([N+](=O)[O-])ccc21 [FD4] | 50% |  |  |  | 33.9% |  | comparable effects with that of Triciribine |  | 7.2% | 22% |
| C=CC(=O)n1c(=O)n(C(=C)C)c2cc([N+](=O)[O-])ccc21 [FD5] | 20% |  |  |  | 29.1% |  |  |  | 22.3% | 7.3% |
| C=CC(=O)n1c(=O)n(C(=C)C)c2ccc([N+](=O)[O-])cc21 [FD6] | 10% |  |  |  | 24.2% |  |  |  | 18.2% | 30.4% |
| C=C(C)C(=O)n1c(=O)n(C(=C)C)c2cc([N+](=O)[O-])ccc21 [FD7] | 6% |  |  |  | 22.6% |  |  |  | 34.1% | 34.1% |
| C=C(C)C(=O)n1c(=O)n(C(=C)C)c2ccc([N+](=O)[O-])cc21 [FD8] | 3% |  |  |  | 13.4% |  |  |  | 2.8% | 28% |
| C=C(C)n1c(=O)n(C(=O)CCC)c2ccc([N+](=O)[O-])cc21 [FD9] | 22% |  | 1.1% |  | 26.1% |  |  |  |  | 26.4% |
| C=C(C)n1c(=O)n(C(=O)CCC)c2cc([N+](=O)[O-])ccc21 [FD10] | 17% |  |  |  | 13.8% |  |  |  | 5.3% | 28.1% |
| C=C(C)n1c(=O)n(C(=O)CCC)c2ccc([N+](=O)[O-])cc21 [FD11] | 11% |  | 2.4% |  |  | 13.6% |  | 19.2% |  |  |
| C=C(C)n1c(=O)n(C(=O)CCC)c2cc([N+](=O)[O-])ccc21 [FD12] | 48% |  | 3.8% |  |  | 19.8% | comparable effects with that of Triciribine | 8.2% |  |  |
| C=C(C)n1c(=O)n(C(=O)CCCCC)c2ccc([N+](=O)[O-])cc21 [FD13] | 56% |  |  |  |  |  | comparable effects with that of Triciribine |  |  |  |
| C=C(C)n1c(=O)n(C(=O)CCCCC)c2cc([N+](=O)[O-])ccc21 [FD14] | 34% |  |  |  | 9% |  |  |  | 13.1% | 25.5% |
| C=C(C)n1c(=O)n(C(=O)CCCCCCC)c2ccc([N+](=O)[O-])cc21 [FD15] | 42% |  |  |  | 4.6% |  |  |  | 33.3% | 20.1% |
| C=C(C)n1c(=O)n(C(=O)CCCCCCC)c2cc([N+](=O)[O-])ccc21 [FD16] | 64% |  |  |  | 7.1% |  |  |  | 23.2% | 12.4% |
| C=C(C)n1c(=O)n(C(=O)c2ccccc2C)c2ccc([N+](=O)[O-])cc21 [FD17] | 38% |  |  |  | 20% |  |  |  | 31.4% | 40.5% |
| C=C(C)n1c(=O)n(C(=O)c2ccccc2C)c2cc([N+](=O)[O-])ccc21 [FD18] | 42% |  |  |  | 32.1% |  |  |  | 11.5% | 44.2% |
| NC1(c2ccc(-c3nc4ccn5c(=O)[nH]nc5c4cc3-c3ccccc3)cc2)CCC1 [MK2206, reference compound] | 92% | significantly reduce the Akt phosphorylation level; also recorded: significantly inhibited the increase of Akt phosphorylation level stimulated by IGF | 61.0% |  |  | 24.3% |  | 1.2% |  |  |
